From patent publication US20240208992A1, “MACROCYCLES AS CFTR MODULATORS” (Idorsia Pharmaceuticals Ltd, priority 2021, published 2024)

Target: human F508del-CFTR (Homo sapiens, UniProt P13569, DEL508-508)
Assay: F508del-CFTR cell surface expression (corrector activity), DiscoveRx ß-galactosidase complementation chemiluminescence assay in recombinant U2OS cell line;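 also: U2OS cells co-expressing ProLink-tagged F508del-CFTR and a membrane-anchored enzyme acceptor, where more surface CFTR restores β-galactosidase activity measured by chemiluminescence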
Details: U2OS cells, 16h compound incubation; for EC50: EC50, F508del-CFTR cell surface expression, geomean of several measurements; for Emax: U2OS, in relation to the Emax of the corrector lumacaftor (=100%), arithmetic mean

Chain of human F508del-CFTR (P13569 with tags, fused parts or gaps DEL508-508): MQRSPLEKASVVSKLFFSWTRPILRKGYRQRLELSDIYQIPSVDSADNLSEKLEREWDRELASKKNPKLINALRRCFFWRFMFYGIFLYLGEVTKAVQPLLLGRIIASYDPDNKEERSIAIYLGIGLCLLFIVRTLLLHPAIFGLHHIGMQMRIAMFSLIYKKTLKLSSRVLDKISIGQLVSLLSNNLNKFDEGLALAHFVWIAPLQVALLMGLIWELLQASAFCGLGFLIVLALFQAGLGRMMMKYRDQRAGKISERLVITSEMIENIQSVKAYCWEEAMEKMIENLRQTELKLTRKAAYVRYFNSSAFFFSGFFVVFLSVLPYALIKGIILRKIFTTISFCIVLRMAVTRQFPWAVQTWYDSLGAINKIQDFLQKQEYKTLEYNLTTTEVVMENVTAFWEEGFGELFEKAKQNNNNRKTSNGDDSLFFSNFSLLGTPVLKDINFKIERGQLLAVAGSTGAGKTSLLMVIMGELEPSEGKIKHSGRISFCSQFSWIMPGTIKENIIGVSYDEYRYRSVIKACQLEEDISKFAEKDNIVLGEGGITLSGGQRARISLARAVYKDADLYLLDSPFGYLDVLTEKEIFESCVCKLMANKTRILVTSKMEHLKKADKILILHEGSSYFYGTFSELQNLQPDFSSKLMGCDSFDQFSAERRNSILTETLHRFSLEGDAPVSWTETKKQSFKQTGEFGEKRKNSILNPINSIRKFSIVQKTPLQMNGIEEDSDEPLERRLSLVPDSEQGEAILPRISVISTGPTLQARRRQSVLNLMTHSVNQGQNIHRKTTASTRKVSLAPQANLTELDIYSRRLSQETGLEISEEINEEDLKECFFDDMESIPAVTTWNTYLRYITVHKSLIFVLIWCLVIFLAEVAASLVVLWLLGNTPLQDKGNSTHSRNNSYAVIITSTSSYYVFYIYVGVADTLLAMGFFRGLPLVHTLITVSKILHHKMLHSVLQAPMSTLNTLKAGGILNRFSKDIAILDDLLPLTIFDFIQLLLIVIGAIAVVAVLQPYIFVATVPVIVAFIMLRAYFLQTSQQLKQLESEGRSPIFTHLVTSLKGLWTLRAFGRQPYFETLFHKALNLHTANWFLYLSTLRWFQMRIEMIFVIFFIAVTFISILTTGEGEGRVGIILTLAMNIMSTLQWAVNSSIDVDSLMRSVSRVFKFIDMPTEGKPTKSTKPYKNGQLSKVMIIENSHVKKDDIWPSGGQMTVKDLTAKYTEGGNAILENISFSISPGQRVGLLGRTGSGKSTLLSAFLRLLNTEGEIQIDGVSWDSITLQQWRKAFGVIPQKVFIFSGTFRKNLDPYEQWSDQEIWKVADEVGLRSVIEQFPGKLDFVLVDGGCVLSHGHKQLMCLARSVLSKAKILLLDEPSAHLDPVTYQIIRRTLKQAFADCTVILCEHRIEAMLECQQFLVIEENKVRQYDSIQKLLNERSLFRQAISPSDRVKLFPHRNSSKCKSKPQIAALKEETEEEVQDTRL

| Structure (SMILES) | EC50 | Emax |
| --- | --- | --- |
| COc1cc(CCNC(=O)[C@@H]2CC(=O)N(C)[C@@H](CC(C)C)C(=O)N(C)[C@H](CCc3nc(C4CCCC4)no3)C(=O)N[C@H](Cc3ccccc3)COc3ccnc(OC)c3C(=O)N2)on1 [Example 884, (3R,6R,9S,13S)-3-benzyl-6-(2-(3-cyclopentyl-1,2,4-oxadiazol-5-yl)ethyl)-9-isobutyl-16-methoxy-N-(2-(3-methoxyisoxazol-5-yl)ethyl)-7,10-dimethyl-5,8,11,15-tetraoxo-2,3,4,5,6,7,8,9,10,11,12,13,14,15-tetradecahydropyrido[3,4-p][1]oxa[4,7,10,14]tetraazacycloheptadecine-13-carboxamide] | 96 nM | 385% |
| CC(C)C[C@H]1C(=O)N(C)[C@H](Cn2cc(-c3ccc(F)cn3)nn2)C(=O)N[C@H](Cc2ccccc2)COc2cnc3ccc(F)cc3c2C(=O)N[C@H](C(=O)NCCc2noc(C3CC3)n2)CC(=O)N1C [Example 885, (3S,7S,10R,13R)-13-benzyl-N-(2-(5-cyclopropyl-1,2,4-oxadiazol-3-yl)ethyl)-20-fluoro-10-((4-(5-fluoropyridin-2-yl)-1H-1,2,3-triazol-1-yl)methyl)-7-isobutyl-6,9-dimethyl-1,5,8,11-tetraoxo-1,2,3,4,5,6,7,8,9,10,11,12,13,14-tetradecahydro-[1]oxa[4,7,10,14]tetraazacycloheptadecino[17,16-c]quinoline-3-carboxamide] | 78 nM | 328% |
| CC(C)C[C@H]1C(=O)N(C)[C@H](Cc2cc(C(C)(C)C)no2)C(=O)N[C@H](Cc2ccccc2)COc2cnc3ccc(F)cc3c2C(=O)N[C@H](C(=O)NCCc2noc(C3CC3)n2)CC(=O)N1C [Example 886, (3S,7S,10R,13R)-13-benzyl-10-((3-(tert-butyl)isoxazol-5-yl)methyl)-N-(2-(5-cyclopropyl-1,2,4-oxadiazol-3-yl)ethyl)-20-fluoro-7-isobutyl-6,9-dimethyl-1,5,8,11-tetraoxo-1,2,3,4,5,6,7,8,9,10,11,12,13,14-tetradecahydro-[1]oxa[4,7,10,14]tetraazacycloheptadecino[17,16-c]quinoline-3-carboxamide] | 15 nM | 359% |
| CC(C)C[C@H]1C(=O)N(C)[C@H](CCc2nc(-c3ccc(F)cn3)no2)C(=O)N[C@H](Cc2ccccc2)COc2cnc3ccc(F)cc3c2C(=O)N[C@H](C(=O)NCCc2noc(C3CC3)n2)CC(=O)N1C [Example 887, (3S,7S,10R,13R)-13-benzyl-N-(2-(5-cyclopropyl-1,2,4-oxadiazol-3-yl)ethyl)-20-fluoro-10-(2-(3-(5-fluoropyridin-2-yl)-1,2,4-oxadiazol-5-yl)ethyl)-7-isobutyl-6,9-dimethyl-1,5,8,11-tetraoxo-1,2,3,4,5,6,7,8,9,10,11,12,13,14-tetradecahydro-[1]oxa[4,7,10,14]tetraazacycloheptadecino[17,16-c]quinoline-3-carboxamide] | 111 nM | 340% |
| Cc1cc2c(c3cccnc13)C(=O)N[C@H](C(=O)NCCn1nnc(C3CC3)n1)CC(=O)N(C)[C@@H](CC(C)C)C(=O)N1CCCC[C@@H]1C(=O)N[C@H](Cc1ccccc1)CO2 [Example 888, (9S,13S,19aR,22R)-22-benzyl-N-(2-(5-cyclopropyl-2H-tetrazol-2-yl)ethyl)-13-isobutyl-2,12-dimethyl-7,11,14,20-tetraoxo-7,8,9,10,11,12,13,14,17,18,19,19a,20,21,22,23-hexadecahydro-16H-pyrido[2′,1′:6,7][1]oxa[4,7,10,14]tetraazacycloheptadecino[16,17-f]quinoline-9-carboxamide] | 170 nM | 410% |
| Cc1cc2c3c(ccc2cn1)OC[C@@H](Cc1ccccc1)NC(=O)[C@@H](Cc1nc(C(F)(F)F)no1)N(C)C(=O)[C@H](CC(C)C)N(C)C(=O)C[C@@H](C(=O)NCCc1noc(C2CC2)n1)NC3=O [Example 889, (3S,7S,10R,13R)-13-benzyl-N-(2-(5-cyclopropyl-1,2,4-oxadiazol-3-yl)ethyl)-7-isobutyl-6,9,20-trimethyl-1,5,8,11-tetraoxo-10-((3-(trifluoromethyl)-1,2,4-oxadiazol-5-yl)methyl)-1,2,3,4,5,6,7,8,9,10,11,12,13,14-tetradecahydro-[1]oxa[4,7,10,14]tetraazacycloheptadecino[16,17-f]isoquinoline-3-carboxamide] | 34 nM | 403% |
| Cc1cc2c3c(ccc2cn1)OC[C@@H](Cc1ccccc1)NC(=O)[C@@H](Cc1nc(C(F)(F)F)no1)N(C)C(=O)[C@H](CC(C)C)N(C)C(=O)C[C@@H](C(=O)NCCn1nnc(C2CC2)n1)NC3=O [Example 890, (3S,7S,10R,13R)-13-benzyl-N-(2-(5-cyclopropyl-2H-tetrazol-2-yl)ethyl)-7-isobutyl-6,9,20-trimethyl-1,5,8,11-tetraoxo-10-((3-(trifluoromethyl)-1,2,4-oxadiazol-5-yl)methyl)-1,2,3,4,5,6,7,8,9,10,11,12,13,14-tetradecahydro-[1]oxa[4,7,10,14]tetraazacycloheptadecino[16,17-f]isoquinoline-3-carboxamide] | 34 nM | 409% |
| CC(C)C[C@H]1C(=O)N(C)[C@H](Cc2nc(-c3ccc(F)cn3)no2)C(=O)N[C@H](Cc2ccccc2)COc2ccc3ncc(F)cc3c2C(=O)N[C@H](C(=O)NC[C@@H](O)c2nc(C3CC3)no2)CC(=O)N1C [Example 892, (3S,7S,10R,13R)-13-benzyl-N-((R)-2-(3-cyclopropyl-1,2,4-oxadiazol-5-yl)-2-hydroxyethyl)-20-fluoro-10-((3-(5-fluoropyridin-2-yl)-1,2,4-oxadiazol-5-yl)methyl)-7-isobutyl-6,9-dimethyl-1,5,8,11-tetraoxo-1,2,3,4,5,6,7,8,9,10,11,12,13,14-tetradecahydro-[1]oxa[4,7,10,14]tetraazacycloheptadecino[16,17-f]quinoline-3-carboxamide] | 467 nM | 442% |
| CC(C)C[C@H]1C(=O)N(C)[C@H](CC(F)F)C(=O)N[C@H](Cc2ccccc2)COc2ccc3ncc(F)cc3c2C(=O)N[C@H](C(=O)NCCn2nnc(C3CC3)n2)CC(=O)N1C [Example 893, (3S,7S,10R,13R)-13-benzyl-N-(2-(5-cyclopropyl-2H-tetrazol-2-yl)ethyl)-10-(2,2-difluoroethyl)-20-fluoro-7-isobutyl-6,9-dimethyl-1,5,8,11-tetraoxo-1,2,3,4,5,6,7,8,9,10,11,12,13,14-tetradecahydro-[1]oxa[4,7,10,14]tetraazacycloheptadecino[16,17-f]quinoline-3-carboxamide] | 216 nM | 394% |
| CCOCC[C@@H]1C(=O)N[C@H](Cc2ccccc2)COc2ccc3ncc(F)cc3c2C(=O)N[C@H](C(=O)NCCc2cc(C)no2)CC(=O)N(C)[C@@H](CC(C)C)C(=O)N1C [Example 894, (3S,7S,10R,13R)-13-benzyl-10-(2-ethoxyethyl)-20-fluoro-7-isobutyl-6,9-dimethyl-N-(2-(3-methylisoxazol-5-yl)ethyl)-1,5,8,11-tetraoxo-1,2,3,4,5,6,7,8,9,10,11,12,13,14-tetradecahydro-[1]oxa[4,7,10,14]tetraazacycloheptadecino[16,17-f]quinoline-3-carboxamide] | 339 nM | 431% |
| CCOCC[C@@H]1C(=O)N[C@H](Cc2ccccc2)COc2ccc3ncc(F)cc3c2C(=O)N[C@H](C(=O)NCCc2cc(OC)no2)CC(=O)N(C)[C@@H](CC(C)C)C(=O)N1C [Example 895, (3S,7S,10R,13R)-13-benzyl-10-(2-ethoxyethyl)-20-fluoro-7-isobutyl-N-(2-(3-methoxyisoxazol-5-yl)ethyl)-6,9-dimethyl-1,5,8,11-tetraoxo-1,2,3,4,5,6,7,8,9,10,11,12,13,14-tetradecahydro-[1]oxa[4,7,10,14]tetraazacycloheptadecino[16,17-f]quinoline-3-carboxamide] | 136 nM | 409% |
| CCOCC[C@@H]1C(=O)N[C@H](Cc2ccccc2)COc2ccc3ncc(F)cc3c2C(=O)N[C@H](C(=O)NCCn2nnc(C3CC3)n2)CC(=O)N(C)[C@@H](CC(C)C)C(=O)N1C [Example 896, (3S,7S,10R,13R)-13-benzyl-N-(2-(5-cyclopropyl-2H-tetrazol-2-yl)ethyl)-10-(2-ethoxyethyl)-20-fluoro-7-isobutyl-6,9-dimethyl-1,5,8,11-tetraoxo-1,2,3,4,5,6,7,8,9,10,11,12,13,14-tetradecahydro-[1]oxa[4,7,10,14]tetraazacycloheptadecino[16,17-f]quinoline-3-carboxamide] | 188 nM | 427% |
| COc1cc(CCNC(=O)[C@@H]2CC(=O)N(C)[C@@H](CC(C)C)C(=O)N(C)[C@H](Cc3nc(C(F)(F)F)no3)C(=O)N[C@H](Cc3ccccc3)COc3cc(C)nc(OC)c3C(=O)N2)on1 [Example 897, (3R,6R,9S,13S)-3-benzyl-9-isobutyl-16-methoxy-N-(2-(3-methoxyisoxazol-5-yl)ethyl)-7,10,18-trimethyl-5,8,11,15-tetraoxo-6-((3-(trifluoromethyl)-1,2,4-oxadiazol-5-yl)methyl)-2,3,4,5,6,7,8,9,10,11,12,13,14,15-tetradecahydropyrido[3,4-p][1]oxa[4,7,10,14]tetraazacycloheptadecine-13-carboxamide] | 32 nM | 454% |
| COc1cc(CCNC(=O)[C@@H]2CC(=O)N(C)[C@@H](CC(C)C)C(=O)N(C)[C@H](Cc3nc(C(F)(F)F)no3)C(=O)N[C@H](Cc3ccccc3)COc3ccc4cnc(C)cc4c3C(=O)N2)on1 [Example 898, (3S,7S,10R,13R)-13-benzyl-7-isobutyl-N-(2-(3-methoxyisoxazol-5-yl)ethyl)-6,9,20-trimethyl-1,5,8,11-tetraoxo-10-((3-(trifluoromethyl)-1,2,4-oxadiazol-5-yl)methyl)-1,2,3,4,5,6,7,8,9,10,11,12,13,14-tetradecahydro-[1]oxa[4,7,10,14]tetraazacycloheptadecino[16,17-f]isoquinoline-3-carboxamide] | 22 nM | 440% |
